According to PubChem BioAssay (NCI):
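Protocol summary: plate cells (96-well), add compound at 5 concentrations, incubate 48 h, interpolate endpoints linearly. The concentration for 50% growth inhibition is given as GI50. Definition used: TGI = concentration required for complete inhibition of growth.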

Tests used:
Assay in all cases: DTP human tumour cell line panel, 48 h
786-0 renal = tested on: 786-0 renal
A498 renal = tested on: A498 renal
A549 NSCLC = tested on: A549 NSCLC
ACHN renal = tested on: ACHN renal
BT-549 breast = tested on: BT-549 breast
CAKI-1 renal = tested on: CAKI-1 renal
CCRF-CEM leukemia = tested on: CCRF-CEM leukemia
COLO 205 colon = tested on: COLO 205 colon
DU-145 prostate = tested on: DU-145 prostate
EKVX NSCLC = tested on: EKVX NSCLC
HCC-2998 colon = tested on: HCC-2998 colon
HCT-116 colon = tested on: HCT-116 colon
HCT-15 colon = tested on: HCT-15 colon
HL-60(TB) leukemia = tested on: HL-60(TB) leukemia
HOP-62 NSCLC = tested on: HOP-62 NSCLC
HS 578T breast = tested on: HS 578T breast
HT29 colon = tested on: HT29 colon
IGROV1 ovarian = tested on: IGROV1 ovarian
K-562 leukemia = tested on: K-562 leukemia
KM12 colon = tested on: KM12 colon
LOX IMVI melanoma = tested on: LOX IMVI melanoma
M14 melanoma = tested on: M14 melanoma
MALME-3M melanoma = tested on: MALME-3M melanoma
MCF7 breast = tested on: MCF7 breast
MDA-MB-231 breast = tested on: MDA-MB-231 breast
MDA-MB-435 = tested on: MDA-MB-435
MOLT-4 leukemia = tested on: MOLT-4 leukemia
NCI-H226 lung = tested on: NCI-H226 lung

Q: `CCCCN1C=CCN(CCCC)C1` was tested. Which GI50 (786-0 renal) did it give?
A: > 100 µM

Q: What about the TGI (786-0 renal) of the same molecule?
A: > 100 µM

Q: What about the GI50 (A498 renal) of the same molecule?
A: > 100 µM

Q: What about the TGI (A498 renal) of the same molecule?
A: > 100 µM

Q: What about the GI50 (A549 NSCLC) of the same molecule?
A: > 100 µM

Q: And the TGI (A549 NSCLC)?
A: > 100 µM

Q: And the GI50 (ACHN renal)?
A: 89.7 µM

Q: What about the TGI (ACHN renal) of the same molecule?
A: > 100 µM

Q: And the GI50 (BT-549 breast)?
A: > 100 µM

Q: What about the TGI (BT-549 breast) of the same molecule?
A: > 100 µM

Q: What about the GI50 (CAKI-1 renal) of the same molecule?
A: > 100 µM

Q: And the TGI (CAKI-1 renal)?
A: > 100 µM

Q: What about the GI50 (CCRF-CEM leukemia) of the same molecule?
A: > 100 µM

Q: And the TGI (CCRF-CEM leukemia)?
A: > 100 µM

Q: And the GI50 (COLO 205 colon)?
A: 28.9 µM

Q: What about the TGI (COLO 205 colon) of the same molecule?
A: > 100 µM

Q: What about the GI50 (DU-145 prostate) of the same molecule?
A: > 100 µM

Q: What about the TGI (DU-145 prostate) of the same molecule?
A: > 100 µM

Q: What about the GI50 (EKVX NSCLC) of the same molecule?
A: 18.5 µM

Q: And the TGI (EKVX NSCLC)?
A: > 100 µM

Q: And the GI50 (HCC-2998 colon)?
A: 34 µM

Q: What about the TGI (HCC-2998 colon) of the same molecule?
A: > 100 µM

Q: What about the GI50 (HCT-116 colon) of the same molecule?
A: 39 µM

Q: And the TGI (HCT-116 colon)?
A: > 100 µM

Q: And the GI50 (HCT-15 colon)?
A: > 100 µM

Q: What about the TGI (HCT-15 colon) of the same molecule?
A: > 100 µM

Q: And the GI50 (HL-60(TB) leukemia)?
A: 21.2 µM

Q: And the TGI (HL-60(TB) leukemia)?
A: 75.4 µM

Q: What about the GI50 (HOP-62 NSCLC) of the same molecule?
A: > 100 µM

Q: And the TGI (HOP-62 NSCLC)?
A: > 100 µM

Q: What about the GI50 (HS 578T breast) of the same molecule?
A: 63.4 µM

Q: And the TGI (HS 578T breast)?
A: > 100 µM

Q: And the GI50 (HT29 colon)?
A: 61.4 µM

Q: What about the TGI (HT29 colon) of the same molecule?
A: > 100 µM

Q: What about the GI50 (IGROV1 ovarian) of the same molecule?
A: 66.4 µM

Q: And the TGI (IGROV1 ovarian)?
A: > 100 µM

Q: And the GI50 (K-562 leukemia)?
A: 32 µM

Q: What about the TGI (K-562 leukemia) of the same molecule?
A: > 100 µM

Q: And the GI50 (KM12 colon)?
A: 35.8 µM

Q: And the TGI (KM12 colon)?
A: > 100 µM

Q: And the GI50 (LOX IMVI melanoma)?
A: 68.5 µM

Q: What about the TGI (LOX IMVI melanoma) of the same molecule?
A: > 100 µM

Q: What about the GI50 (M14 melanoma) of the same molecule?
A: 85.1 µM

Q: What about the TGI (M14 melanoma) of the same molecule?
A: > 100 µM

Q: What about the GI50 (MALME-3M melanoma) of the same molecule?
A: 21.2 µM

Q: And the TGI (MALME-3M melanoma)?
A: 57.3 µM

Q: What about the GI50 (MCF7 breast) of the same molecule?
A: 57 µM

Q: And the TGI (MCF7 breast)?
A: > 100 µM

Q: And the GI50 (MDA-MB-231 breast)?
A: > 100 µM

Q: What about the TGI (MDA-MB-231 breast) of the same molecule?
A: > 100 µM

Q: What about the GI50 (MDA-MB-435) of the same molecule?
A: 33.8 µM

Q: And the TGI (MDA-MB-435)?
A: > 100 µM

Q: What about the GI50 (MOLT-4 leukemia) of the same molecule?
A: 60.7 µM

Q: And the TGI (MOLT-4 leukemia)?
A: > 100 µM

Q: What about the GI50 (NCI-H226 lung) of the same molecule?
A: > 100 µM

Q: And the TGI (NCI-H226 lung)?
A: > 100 µM
